Common to all, as to type: cell-based
The subject of series [1] is human pulmonary microvascular endothelial cells (HMVECs). Nature of the series: Determination of viability for cell culture experiments (LDH activity, CytoTox96 assay) during simulated IRI. Particulars: controls vs treated groups, all time points of simulated IRI. As to the method: In separate experiments performed in triplicate, HMVECs grown to confluence on P35 dishes underwent simulated IRI. At the same time points, cells and cell culture media or Ringer's lactate were assessed for lactate dehydrogenase (LDH) activity using the CytoTox96 Non-Radioactive Cytotoxicity Assay (Promega, Madison, Wis., United States of America) following the manufacturer's instructions. Control samples were also taken at time zero and 24 hours to assess cell viability apart from the experimental model. Culture medium and Ringer's lactate were used as background controls to normalize the absorbance value from the other samples. Cytotoxicity was calculated as media LDH activity divided by total LDH activity (cell pellet plus media). Viability was the inverse and expressed as percent viability at each time point.

For series [2] the test system is unchanged. Nature of the series: Simulated cold IRI: cold ischemia in 4° C. PERFADEX, gaps in monolayer. The conditions noted are these: CRX-526 pre-incubation; 4 hours of cold ischemia in 4° C. PERFADEX; FIG. 2A, 2B. As to the method: FIG. 2A is a series of photographs of (from left to right) human pulmonary microvascular endothelial cells (HMVECs) in warm (37° C.) cell culture media (Control), of HMVECs after four hours of cold ischemia (CI) in 4° C. cell culture media (Media 4 hr CI), of HMVECs after four hours of cold ischemia in 4° C. PERFADEX™ (Vitrolife, Kungsbacka, Sweden) pulmonary preservation solution (Vehicle 4 hr CI), and of HMVECs that had been pre-incubated with CRX-526 and undergone four hours of cold ischemia in 4° C. PERFADEX™ (Vitrolife, Kungsbacka, Sweden) with CRX-526 (CRX-526 4 hr CI). The photographs are representative of 9 images taken for each set of conditions.
FIG. 2B is a graph of the % area of gaps in the monolayer of human pulmonary microvascular endothelial cells (HMVECs) in cell culture media (Media), vehicle (i.e., PERFADEX™ (Vitrolife, Kungsbacka, Sweden)) or in vehicle after a 1 hour pre-treatment with CRX-526 and following either four hours of cold ischemia (4 hr CI), 1 hour of warm ischemia (WI), or following 1 hour of warm ischemia and 15 min, 1 hr, or 4 hr of reperfusion (15 min rep, 1 hr rep, and 4 hr rep, respectively). Data for the HMVECs in cell culture media without vehicle is shown in the open bars. […] The % gap area was quantified by MetaMorph® software (MDS Analytical Technologies, Inc., Sunnyvale, Calif., United States of America). *=p<0.01. […]

Series [3] shares this test system. Nature of the series: Cell culture model of warm lung IRI: simulated warm ischemia and reperfusion, phalloidin staining and image analysis. Particulars: 1 μg/mL CRX-526 vs vehicle. As to the method: An in vitro normothermic (37° C.) model of IRI employing nutrient depletion in 100% oxygen to model ischemia was developed, with reperfusion modeled by supplying fresh medium to culture dishes in sealed PLEXIGLAS® containers. Human pulmonary microvascular endothelial cells (HMVECs) (Cambrex Bio Science, Walkersville, Md., United States of America) maintained in CLONETICS® EGM-2MV BULLETKITS® (Cambrex Bio Science, Walkersville, Md., United States of America), at 37° C. in a humidified incubator in 5% CO2 were seeded at 2000 cells/cm^2 on collagen-coated 30 mm diameter glass bottom dish coverslips (Mattek Corp., Ashland, Mass., United States of America) and grown until 100% confluent. Sealed PLEXIGLAS® containers housing culture dishes at 37° C. were ventilated with 95% O2/5% CO2. To model warm ischemia (WI), cell medium was suddenly replaced with 2 mL nutrient-depleted, pyrogen-free clinical grade Ringer's lactate. Dishes were pre-treated with 1 μg/mL CRX-526 (GlaxoSmithKline, Duluth, Minn., United States of America) or vehicle (2% glycerin), one hour before WI. CRX-526 or vehicle was added whenever medium was changed. After 1 hour of simulated WI, Ringer's lactate was replaced with EGM2-MV pyrogen-free medium to simulate reperfusion, ventilating the chamber with 5% CO2 in room air. Dishes were removed in triplicate during WI and reperfusion, and immediately fixed in 4% paraformaldehyde for phalloidin staining. Cells with inhibitor or vehicle maintained in EGM2-MV medium at 37° C. in humidified 5% CO2 incubator served as controls. Culture medium was changed at the same time that medium was changed in experimental dishes. Probes inserted through sealed ports continuously recorded temperature, and pH in a representative dish in the PLEXIGLAS® box using voltmeters with data output recorded by PicoRecorded software (Pico Technology, St. Neots, United Kingdom).
HMVECs were fixed in 4% paraformaldehyde for 10 minutes at room temperature and washed 3 times with PBS. Cells were incubated for 1 hour with a 1/100 dilution of ALEXAFLOR® 568 phalloidin (Invitrogen, Carlsbad, Calif., United States of America) in PBS with 1% BSA and 0.05% Tween-20. Coverslips stained for F-actin were immediately examined with a Leica DMIRB Inverted Fluorescence/DIC microscope (Leica Microsystems, Inc., Bannockburn, Ill., United States of America) at 20× and 40× magnification to evaluate changes in cell shape and F-actin cytoskeleton. For each dish, three pictures were taken of contiguous fields near the center of the dish at 40× with a Kodak (Rochester, N.Y., United States of America) digital camera at the same exposure time. A masked observer assessed actin stress fiber pattern of each cell as normal or abnormal. Quantitative analysis of gap area was performed using METAMORPH® software (MDS Analytical Technologies, Inc., Sunnyvale, Calif., United States of America).
As described in Example 1, HMVECs grown to confluence on P30 dishes with integral cover slips were incubated with 1 μg/mL CRX-526 or vehicle, ventilated with 95% O2/5% CO2. Media was replaced with warm (37° C.)
Ringer's lactate and ventilated with 100% O2 to simulate warm ischemia. One hour later, Ringer's lactate was replaced with warm cell culture media, and chambers were ventilated with 95% room air/5% CO2 to simulate reperfusion. […]

The structures appear in SMILES notation.

`CCCCCCCCCCC[C@H](CC(=O)N[C@H]1[C@H](OC[C@H](NC(=O)C[C@@H](CCCCCCCCCCC)OC(=O)CCCCC)C(=O)O)O[C@H](CO)[C@@H](OP(=O)(O)O)[C@@H]1OC(=O)C[C@@H](CCCCCCCCCCC)OC(=O)CCCCC)OC(=O)CCCCC` [CRX-526]: in series [1], the “cell viability, quantified by LDH assay” value is “equivalent”. Also, the gaps in monolayer entry in series [2] is recorded as “much less obvious”. The “peripheral orientation of actin” value in series [3] (after 15 minutes simulated reperfusion, FIG. 1C) is “significantly reduced”; in series [3] (following 60 minutes of WI, FIG. 1C), “significantly reduced”. The “recovery of monolayer confluence” value in series [3] (after simulated reperfusion, FIG. 1B) is listed as “regained confluence more quickly”. The “area of monolayer gaps” value in series [3] (during simulated warm ischemia, FIG. 1B) is “significantly reduced”. Moreover, in series [3] (monolayers in simulated warm IRI, FIG. 1C), the “percentage of cells with altered actin cytoskeleton” value was “decreased”.

(Values after US8809303B2, “Methods of regulating actin cytoskeletal rearrangement and intercellular gap formation” (The University of North Carolina at Chapel Hill, priority 2008, dated 2014).)
